In patent US20040242591A1, “Oxazolidinone derivatives as pontential antimicrobials” (priority 2001, published 2004):

How the values were obtained:
MRSA 33 = experiment: MIC by agar incorporation method, MRSA 33; format: cell-based, Methicillin Resistant Staphylococcus aureus; parameters: unit not given here; conditions: Mueller Hinton agar, 10^4 CFU/spot, 24 hours
S. pneum AB 34 = experiment: MIC by agar incorporation method, S. pneum AB 34; format: cell-based, Streptococcus pneumoniae; parameters: unit not given here; conditions: Mueller Hinton agar, 10^4 CFU/spot, 18 hours
Ent. faecalis ATCC 29212 = experiment: MIC by agar incorporation method, E.faecalis 29212; format: cell-based, Enterococcus faecalis; parameters: unit not given here; conditions: Mueller Hinton agar, 10^4 CFU/spot, 18 hours
Source text: 3) Ent. faecalis ATCC 29212—Enterococcus faecalis ATCC 29212

MRSA 15187 = experiment: MIC by agar incorporation method, MRSA 15187; format: cell-based, Methicillin Resistant Staphylococcus aureus; parameters: unit not given here; conditions: Mueller Hinton agar, 10^4 CFU/spot, 24 hours
Source text: 2) MRSA 15187—Methicillin Resistant Staphylococcus aureus

MRSA 562 = experiment: MIC by agar incorporation method, MRSA 562; format: cell-based, Methicillin Resistant Staphylococcus aureus; parameters: unit not given here; conditions: Mueller Hinton agar, 10^4 CFU/spot, 24 hours
VRE 6A = experiment: MIC by agar incorporation method, VRE 6A; format: cell-based, Enterococcus faecium; parameters: unit not given here; conditions: Mueller Hinton agar, 10^4 CFU/spot, 18 hours
Source text: 4) Ent. faecium […]—Enterococcus faecium 6A Van®, Cipro®

Strep.pyog. ATCC 19615 = experiment: MIC by agar incorporation method, S.pyogenes 19615; format: cell-based, Streptococcus pyogenes; parameters: unit not given here; conditions: Mueller Hinton agar, 10^4 CFU/spot, 18 hours
Source text: 6) Strep.pyog. ATCC 19615—Streptococcus pyogenes

S.aureus ATCC 25923 = experiment: MIC by agar incorporation method, S.aureus 25923; format: cell-based, Staphylococus aureus; parameters: unit not given here; conditions: Mueller Hinton agar, 10^4 CFU/spot, 18 hours
Strep. pne. ATCC 6303 = experiment: MIC by agar incorporation method, S. pneum 6303; format: cell-based, Streptococcus pneumoniae; conditions: Mueller Hinton agar, 10^4 CFU/spot, 18 hours
Source text: 5) Strep. pne. ATCC 6303—Streptococcus pneumoniae ATCC 6303

Compound	In Vitro (MIC) MRSA 33 (MRSA 33)	In Vitro (MIC) S. pneum AB 34 (S. pneum AB 34)	In Vitro (MIC) E.faecalis 29212 (Ent. faecalis ATCC 29212)	In Vitro (MIC) MRSA 15187 (MRSA 15187)	In Vitro (MIC) MRSA 562 (MRSA 562)	In Vitro (MIC) VRE 6A (VRE 6A)	In Vitro (MIC) S.pyogenes 19615 (Strep.pyog. ATCC 19615)	In Vitro (MIC) S.aureus 25923 (S.aureus ATCC 25923)	In Vitro (MIC) S. pneum 6303 (Strep. pne. ATCC 6303) [µg/mL]
CC(=O)NC[C@H]1CN(c2ccc(N3CCC(N(C)Cc4ccc([N+](=O)[O-])s4)C3)c(F)c2)C(=O)O1 (stereo partly drawn) [Compound No. 90, (S)-N-[[3-[3-Fluoro-4-[N-1,3-[N-methyl[N-{2-thiophenyl(5-nitro)methyl}]aminopyrodinyl]phenyl]]-2-oxo-5-oxazolidinyl]methyl]acetamide]	4	4	4	2	2	4	2	4	4
CC(=O)NC[C@H]1CN(c2ccc(N3CCC(N(C)C(=O)c4ccc([N+](=O)[O-])s4)C3)c(F)c2)C(=O)O1 (stereo partly drawn) [Compound No. 91]	<0.25	1	0.5	<0.25	<0.25	1	<0.25	<0.25	1
CC(=O)NC[C@H]1CN(c2ccc(N3CCC(N(C)C(=O)c4ccc([N+](=O)[O-])o4)C3)c(F)c2)C(=O)O1 (stereo partly drawn) [Compound No. 92]	0.5	1	<0.25	0.5	<0.25	<0.25	1	1	1
CC(=O)NC[C@H]1CN(c2ccc(N3CCC(CN(C)Cc4ccc([N+](=O)[O-])o4)CC3)c(F)c2)C(=O)O1 [Compound No. 93]	1	4	2	1	1	4	1	2	4

Next, values leading:

In Vitro (MIC) MRSA 33 (MRSA 33)	In Vitro (MIC) S. pneum AB 34 (S. pneum AB 34)	In Vitro (MIC) E.faecalis 29212 (Ent. faecalis ATCC 29212)	In Vitro (MIC) MRSA 15187 (MRSA 15187)	In Vitro (MIC) MRSA 562 (MRSA 562)	In Vitro (MIC) VRE 6A (VRE 6A)	In Vitro (MIC) S.pyogenes 19615 (Strep.pyog. ATCC 19615)	In Vitro (MIC) S.aureus 25923 (S.aureus ATCC 25923)	In Vitro (MIC) S. pneum 6303 (Strep. pne. ATCC 6303) [µg/mL]	Compound
2	8	4	2	2	4	4	4	4	CC(=O)NC[C@H]1CN(c2ccc(N3CCC(CN(C)Cc4ccc([N+](=O)[O-])s4)CC3)c(F)c2)C(=O)O1 [Compound No. 94]
16	4	8	16	8	8	4	16	4	CC(=O)NC[C@H]1CN(c2ccc(N3CCCC(=O)C3)c(F)c2)C(=O)O1 [Compound No. 96, (S)-N-[[3-{3-Fluoro-4-(3-oxo-piperidin-1-yl)-phenyl}-2-oxo-5-oxazolidinyl]methyl]acetamide]
>8	4	>8	>8	>8	8	2	>8	4	CC(=O)NC[C@H]1CN(c2ccc(N3CC4C(CNCc5ccc([N+](=O)[O-])o5)C4C3)c(F)c2)C(=O)O1 (stereo partly drawn) [Compound No. 99, (S)-N-[[3-[3-Fluoro-4[N-1-[3-{N-2-furyl-(5-nitro)methyl}-aminomethyl]-3-azabicyclo[3.1.0]hexane]phenyl]-2-oxo-5-oxazolidinyl]methyl]acetamide]
0.5	2	0.5	0.5	0.5	0.5	2	0.5	2	CC(=O)NC[C@H]1CN(c2ccc(N3CCN(C(C)c4ccc([N+](=O)[O-])s4)CC3)c(F)c2)C(=O)O1 (stereo partly drawn) [Compound No. 100]
1	2	0.125	1	1	0.25	0.06	1	1	CC(=O)NC[C@H]1CN(c2ccc(N3CCN(C(C)c4ccc([N+](=O)[O-])o4)CC3)c(F)c2)C(=O)O1 (stereo partly drawn) [Compound No. 101]
